Experimental data reported in patent US11180504B2 (ORCHID PHARMA LTD., priority 2016, dated 2021).
In brackets after ≈: the same amount, converted by molar mass. Like-named read-outs stand apart in the source and are kept apart here.

Assays:
[1] = tested on: carbapenem sensitive Pseudomonas aeruginosa; assay: MIC by broth micro-dilution (CLSI), carbapenem sensitive P. aeruginosa; type: cell-based; conditions: Pseudomonas aeruginosa
[2] = tested on: carbapenemase producing K. pneumoniae; assay: MIC by broth micro-dilution (CLSI), carbapenemase producing K. pneumoniae; type: cell-based, Klebsiella pneumoniae; conditions: Klebsiella pneumoniae
[3] = tested on: methicillin-sensitive Staphylococcus aureus; assay: MIC by broth micro-dilution (CLSI), methicillin-sensitive S. aureus; type: cell-based; conditions: Staphylococcus aureus, ATCC 29213 / MSSA
[4] = tested on: extended spectrum β lactamase (ESBL) SHV18 producing Klebsiella pneumoniae; assay: MIC by broth micro-dilution (CLSI), ESBL SHV18 producing K. pneumoniae; type: cell-based; conditions: Klebsiella pneumoniae, ATCC700603, 22 h
[5] = tested on: carbapenem sensitive Escherichia coli; assay: MIC by broth micro-dilution (CLSI), carbapenem sensitive E. coli; type: cell-based; conditions: Escherichia coli
[6] = ATCC27853, Meropenem susceptible P. aeruginosa ATCC27853, read-out: MIC
[7] = ATCCBAA1705, KPC-2 K. pneumoniae ATCC BAA-1705, read-out: MIC
[8] = MSSA S. aureus ATCC29213, read-out: MIC
[9] = ESBL +ve (SHV-18) K. pneumoniae ATCC700603, read-out: MIC
[10] = ATCC25922, ESBL −ve E. coli ATCC25922, read-out: MIC

SMILES | MIC [1, 6] | MIC [2, 7] | MIC [3, 8] | MIC [4, 9] | MIC [5, 10] | MIC ([1]; ATCC27853) | MIC ([2]; ATCCBAA1705) | MIC [3] | MIC [4] | MIC ([5]; ATCC25922)
C[C@@H](NC(=O)C(F)F)[C@H]1C(=O)N2C(C(=O)O)=C(S[C@@H]3CN[C@H](CN4CCOCC4)C3)[C@H](C)[C@H]12 [Example 90] | 128 µg/mL (≈ 262 µM) | 4 µg/mL (≈ 8.19 µM) | 1 µg/mL (≈ 2.05 µM) | 32 µg/mL (≈ 65.5 µM) | 1 µg/mL (≈ 2.05 µM) |  |  |  |  | 
COP(=O)(CC(=O)N[C@H](C)[C@H]1C(=O)N2C(C(=O)O)=C(S[C@@H]3CN[C@H](C(=O)N(C)C)C3)[C@H](C)[C@H]12)OC [Example 91] |  |  |  |  |  | > 128 µg/mL | 32 µg/mL (≈ 60.1 µM) | 16 µg/mL (≈ 30 µM) | 32 µg/mL (≈ 60.1 µM) | 4 µg/mL (≈ 7.51 µM)
C[C@@H](NC(=O)C(F)F)[C@H]1C(=O)N2C(C(=O)O)=C(SCCN)[C@H](C)[C@H]12 [Example 92] | 32 µg/mL (≈ 88.1 µM) | 4 µg/mL (≈ 11 µM) | 1 µg/mL (≈ 2.75 µM) | 4 µg/mL (≈ 11 µM) | 0.5 µg/mL (≈ 1.38 µM) |  |  |  |  | 
C[C@@H](NC(=O)C(F)F)[C@H]1C(=O)N2C(C(=O)O)=C(SCCNC(=O)OC(C)(C)C)[C@H](C)[C@H]12 [Example 93] | > 128 µg/mL | > 128 µg/mL | 16 µg/mL (≈ 34.5 µM) | > 128 µg/mL | 128 µg/mL (≈ 276 µM) |  |  |  |  | 
C[C@@H](NC(=O)C(F)F)[C@H]1C(=O)N2C(C(=O)O)=C(Sc3nc(-c4cc[n+](C)cc4)cs3)[C@H](C)[C@H]12 [Example 94] | > 128 µg/mL | > 128 µg/mL | 0.25 µg/mL | > 128 µg/mL | 64 µg/mL |  |  |  |  | 
CNCC(=O)N[C@@H](C)[C@H]1C(=O)N2C(C(=O)O)=C(S[C@H]3CN[C@H](C(=O)N4CC[C@@H](N)C4)C3)[C@H](C)[C@H]12 [Example 95, (4R,5S,6R)-3-((3R,5S)-5-((R)-3-aminopyrrolidine-1-carbonyl)pyrrolidin-3-ylthio)-4-methyl-6-((S)-1-(2-(methylamino)acetamido)ethyl)-7-oxo-1-azabicyclo[3.2.0]hept-2-ene-2-carboxylic acid] | 2 µg/mL (≈ 4.04 µM) | 2 µg/mL (≈ 4.04 µM) | 32 µg/mL (≈ 64.7 µM) | 2 µg/mL (≈ 4.04 µM) | 1 µg/mL (≈ 2.02 µM) |  |  |  |  | 
C[C@@H](NC(=O)C(F)F)[C@H]1C(=O)N2C(C(=O)O)=C(SCc3cccnc3)[C@H](C)[C@H]12 [Example 96] | > 128 µg/mL | 32 µg/mL (≈ 77.8 µM) | 1 µg/mL (≈ 2.43 µM) | 64 µg/mL (≈ 156 µM) | 4 µg/mL (≈ 9.72 µM) |  |  |  |  | 
C[C@@H](NC(=O)C(F)F)[C@H]1C(=O)N2C(C(=O)O)=C(SCc3ccncc3)[C@H](C)[C@H]12 [Example 97] | > 128 µg/mL | 64 µg/mL (≈ 156 µM) | 1 µg/mL (≈ 2.43 µM) | 128 µg/mL (≈ 311 µM) | 8 µg/mL (≈ 19.4 µM) |  |  |  |  | 
CCOC(=O)CN[C@H](C)[C@H]1C(=O)N2C(C(=O)O)=C(S[C@@H]3CN[C@H](C(=O)N(C)C)C3)[C@H](C)[C@H]12 [Example 98] | > 128 µg/mL | 32 µg/mL (≈ 68.3 µM) | 32 µg/mL (≈ 68.3 µM) | 32 µg/mL (≈ 68.3 µM) | 8 µg/mL (≈ 17.1 µM) |  |  |  |  | 
C[C@@H](NCC(=O)O)[C@H]1C(=O)N2C(C(=O)O)=C(S[C@@H]3CN[C@H](C(=O)N(C)C)C3)[C@H](C)[C@H]12 [Example 99] | 16 µg/mL (≈ 36.3 µM) | 64 µg/mL (≈ 145 µM) | 128 µg/mL (≈ 291 µM) | 16 µg/mL (≈ 36.3 µM) | 64 µg/mL (≈ 145 µM) |  |  |  |  | 

The next lines start with results.

MIC [1, 6] | MIC [2, 7] | MIC [3, 8] | MIC [4, 9] | MIC [5, 10] | SMILES | MIC ([1]; ATCC27853) | MIC ([2]; ATCCBAA1705) | MIC [3] | MIC [4] | MIC ([5]; ATCC25922)
128 µg/mL (≈ 261 µM) | 4 µg/mL (≈ 8.17 µM) | 0.5 µg/mL (≈ 1.02 µM) | 8 µg/mL (≈ 16.3 µM) | 0.5 µg/mL (≈ 1.02 µM) | C[C@@H](NC(=O)C(F)F)[C@H]1C(=O)N2C(C(=O)O)=C(S[C@@H]3CN[C@H](CNC(=O)N(C)C)C3)[C@H](C)[C@H]12 [Example 89] |  |  |  |  | 
32 µg/mL (≈ 68.4 µM) | 4 µg/mL (≈ 8.55 µM) | 16 µg/mL (≈ 34.2 µM) | 8 µg/mL (≈ 17.1 µM) | 1 µg/mL (≈ 2.14 µM) | C[C@@H](NC(=O)CN(C)C)[C@H]1C(=O)N2C(C(=O)O)=C(S[C@@H]3CN[C@H](C(=O)N(C)C)C3)[C@H](C)[C@H]12 [Example 100] |  |  |  |  | 
64 µg/mL (≈ 143 µM) | 4 µg/mL (≈ 8.96 µM) | 2 µg/mL (≈ 4.48 µM) | 1 µg/mL (≈ 2.24 µM) | 0.5 µg/mL (≈ 1.12 µM) | CNC(=O)[C@@H]1C[C@H](SC2=C(C(=O)O)N3C(=O)[C@H]([C@@H](C)NC(=O)C(F)F)[C@H]3[C@H]2C)CN1 [Example 101] |  |  |  |  | 
64 µg/mL (≈ 127 µM) | 8 µg/mL (≈ 15.9 µM) | 2 µg/mL (≈ 3.97 µM) | 8 µg/mL (≈ 15.9 µM) | 2 µg/mL (≈ 3.97 µM) | C[C@@H](NC(=O)C(F)F)[C@H]1C(=O)N2C(C(=O)O)=C(S[C@@H]3CN[C@H](C(=O)NCCN(C)C)C3)[C@H](C)[C@H]12 [Example 102] |  |  |  |  | 
8 µg/mL (≈ 16 µM) | 8 µg/mL (≈ 16 µM) | 0.5 µg/mL (≈ 0.997 µM) | 4 µg/mL (≈ 7.98 µM) | 0.5 µg/mL (≈ 0.997 µM) | C[C@@H](NC(=O)C(F)F)[C@H]1C(=O)N2C(C(=O)O)=C(S[C@@H]3CN[C@H](C(=O)N4CC[C@H](N)C4)C3)[C@H](C)[C@H]12 [Example 103] |  |  |  |  | 
